PMC6445163, “Design, synthesis, and evaluation of novel 2-phenylpropionic acid derivatives as dual COX inhibitory-antibacterial agents” (Journal of Enzyme Inhibition and Medicinal Chemistry, 2017)

System: TA100 (base-pair substitutions)
Experiment: Ames MPF mutagenicity assay, TA100
Assay type: cell-based, Salmonella typhimurium
Conditions: Salmonella typhimurium; each concentration, with and without S9; read-out: Fold inductions over baseline, TA 100
Procedure: Salmonella typhimurium strains, TA98 (frameshift mutations) and TA100 (base-pair substitutions), are used in this assay. Concentration range of the compounds was between […] and 5000 µg/mL according to the previous guidelines. Compounds were prepared in six different concentrations (5, 2.5, 1.25, 0.625, 0.3125 and 0.156 mg/mL) in DMSO. Mutagenic potential was determined in absence and presence of Aroclor™-1254 induced male Sprague–Dawley rat liver microsomal enzyme (S9) mix (Xenometrix AG, Switzerland). Positive controls without S9 mix were 2-Nitrofluorene (2 µg/mL) and 4-nitroquinoline N-oxide (0.1 µg/mL) whereas 1 and 2.5 µg/mL of 2-aminoanthracene solutions were used as positive controls with S9 against TA 98 and TA100, respectively. Solvent control was prepared with 4% DMSO. At the end of the experiment, revertant bacteria dropped the pH of solution and indicator medium color was changed to yellow. Yellow wells were counted as positive and compared with the negative control. Fold induction over the negative control and fold induction over the baseline were calculated. Fold induction over the negative control is the ratio of the mean number of positive wells for the dose concentration divided by the mean number of positive wells for the zero dose (negative) control. Fold induction over the baseline is the ratio of the mean number of positive wells for the dose concentration divided by zero dose baseline. The zero dose baseline is obtained by adding one standard deviation to the mean number of positive wells of the zero dose control. Mutagenicity was determined according to the criteria from previous studies[52]^,[56]. For a value ≤3 and significant increases between two and three-fold the baselines were classified as a weak mutagen, and increases ≥ three-fold the baselines were classified as a mutagen. […] As a rule, at least two adjacent doses with significant increases or a significant increase at the highest dose level should be observed for a mutagenic compound. All doses were compared according to Student’s t-test at p < .05 for statistical significance.
Ames assay was performed to investigate the genotoxicity of compounds 6h and 6l.

SMILES: COc1ccc2[nH]c(SCc3ccc(C(C)C(=O)O)cc3)nc2c1 (stereo not shown) [Compound 6l, 2-(4-(((5-Methoxy-1H-benzo[d]imidazol-2-yl)thio)methyl)phenyl)propanoic acid]
- fold induction: < 1.5
